Data taken from the supplement of paper PMC10307832.

Experiments:
Assay in all cases: relative viability (nuclei count vs DMSO), 5 days (fraction); higher = more cells survive
Elesclomol + Bortezomib = compound: CN(NC(=O)CC(=O)NN(C)C(=S)c1ccccc1)C(=S)c1ccccc1 [Elesclomol] + CC(C)C[C@H](NC(=O)[C@H](Cc1ccccc1)NC(=O)c1cnccn1)B(O)O [Bortezomib] (partner 0.002 µM)
In short: (§1)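 Each reported value is a median over duplicate plates. It expresses relative viability: treated-well nuclei count divided by vehicle-well nuclei count. Lung cancer cell lines in 1536-well plates were dosed by pin tool a day after seeding, alone with one drug or with a fixed anchor-drug dose plus five library-drug doses (not always all listed) in √10 steps, and nuclei were counted after 5 days.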

Elesclomol + OSI-027 = compound: CN(NC(=O)CC(=O)NN(C)C(=S)c1ccccc1)C(=S)c1ccccc1 [Elesclomol] + COc1cccc2cc(-c3nc([C@H]4CC[C@H](C(=O)O)CC4)n4ncnc(N)c34)[nH]c12 [OSI-027] (partner 0.5 µM)
In short: as §1

Elesclomol + Crizotinib = compound: CN(NC(=O)CC(=O)NN(C)C(=S)c1ccccc1)C(=S)c1ccccc1 [Elesclomol] + C[C@@H](Oc1cc(-c2cnn(C3CCNCC3)c2)cnc1N)c1c(Cl)ccc(F)c1Cl [Crizotinib] (partner 1 µM)
In short: as §1

Elesclomol + Pemetrexed = compound: CN(NC(=O)CC(=O)NN(C)C(=S)c1ccccc1)C(=S)c1ccccc1 [Elesclomol] + Nc1nc2[nH]cc(CCc3ccc(C(=O)N[C@@H](CCC(=O)O)C(=O)O)cc3)c2c(=O)[nH]1 [Pemetrexed] (partner 0.2 µM)
In short: as §1

Elesclomol + Decitabine = compound: CN(NC(=O)CC(=O)NN(C)C(=S)c1ccccc1)C(=S)c1ccccc1 [Elesclomol] + Nc1ncn([C@H]2C[C@H](O)[C@@H](CO)O2)c(=O)n1 [Decitabine] (partner 2 µM)
In short: as §1

Cell Line	relative viability (Elesclomol + Bortezomib; first compound 0.003162 µM)	relative viability (Elesclomol + Bortezomib; first compound 0.01 µM)	relative viability (Elesclomol + Bortezomib; first compound 0.03162 µM)	relative viability (Elesclomol + Bortezomib; first compound 0.1 µM)	relative viability (Elesclomol + OSI-027; first compound 0.003162 µM)	relative viability (Elesclomol + OSI-027; first compound 0.01 µM)	relative viability (Elesclomol + OSI-027; first compound 0.03162 µM)	relative viability (Elesclomol + OSI-027; first compound 0.1 µM)	relative viability (Elesclomol + Crizotinib; first compound 0.003162 µM)	relative viability (Elesclomol + Crizotinib; first compound 0.01 µM)	relative viability (Elesclomol + Crizotinib; first compound 0.03162 µM)	relative viability (Elesclomol + Crizotinib; first compound 0.1 µM)	relative viability (Elesclomol + Pemetrexed; first compound 0.003162 µM)	relative viability (Elesclomol + Pemetrexed; first compound 0.01 µM)	relative viability (Elesclomol + Pemetrexed; first compound 0.03162 µM)	relative viability (Elesclomol + Pemetrexed; first compound 0.1 µM)	relative viability (Elesclomol + Decitabine; first compound 0.003162 µM)	relative viability (Elesclomol + Decitabine; first compound 0.01 µM)	relative viability (Elesclomol + Decitabine; first compound 0.03162 µM)	relative viability (Elesclomol + Decitabine; first compound 0.1 µM)
201T	1.09	1.07	1.08	1.05	0.683	0.587	0.386	0.369	1.01	0.976	0.978	0.99	0.361	0.369	0.309	0.394	0.869	0.844	0.818	0.854
A-427	0.956	0.908	0.99	0.483	0.45	0.2	0.3	0.149	0.959	0.744	0.895	0.277	0.937	0.707	0.201	0.186	0.601	0.453	0.285	0.194
ABC-1	0.133	0.23	0.25	0.228	0.227	0.19	0.225	0.196	0.195	0.136	0.223	0.289	–	–	–	–	0.409	0.345	0.318	0.279
BEN	0.698	0.57	0.265	0.25	0.301	0.256	0.27	0.252	0.803	0.397	0.304	0.214	0.888	0.68	0.408	0.319	0.677	0.483	0.419	0.333
CAL-12T	1.01	0.555	0.257	0.119	0.504	0.277	0.139	0.0937	0.5	0.0867	0.0556	0.0701	1.03	0.576	0.119	0.0739	–	–	–	–
COR-L23	0.809	0.625	0.579	0.252	0.757	0.408	0.254	0.0774	0.633	0.409	0.341	0.124	0.212	0.206	0.19	0.155	0.439	0.347	0.282	0.163
COR-L 105	0.751	0.577	0.347	0.214	0.667	0.365	0.27	0.143	0.787	0.407	0.288	0.207	1.13	1.17	0.392	0.27	0.666	0.465	0.337	0.303
ChaGo-K-1	0.794	0.402	0.273	0.275	0.591	0.462	0.221	0.136	0.596	0.376	0.288	0.258	0.268	0.255	0.204	0.147	0.531	0.473	0.415	0.163
EKVX	0.997	0.633	0.312	0.208	0.767	0.457	0.329	0.185	0.741	0.486	0.376	0.21	0.366	0.33	0.151	0.131	0.395	0.222	0.148	0.132
EMC-BAC-2	1.08	0.948	0.866	0.637	0.408	0.225	0.352	0.176	0.762	0.718	0.698	0.406	0.486	0.399	0.525	0.426	0.933	0.804	–	0.408
EPLC-272H	0.918	–	1.03	0.481	0.295	–	0.304	0.138	1.03	–	0.837	0.135	0.285	0.118	0.154	0.196	0.35	0.134	0.0913	0.103
H3255	0.792	0.465	0.418	0.289	0.538	0.537	0.489	0.421	0.967	0.459	0.377	0.409	0.627	0.531	0.489	0.474	0.617	0.486	0.296	0.243
HARA	1.1	1.1	1.01	0.332	0.524	0.211	0.31	0.0896	1.06	0.799	0.987	0.368	0.211	0.293	0.183	0.141	0.562	0.584	0.271	0.158
HCC-15	0.998	0.905	0.662	0.42	0.727	0.412	0.276	0.0961	0.753	0.667	0.556	0.259	0.237	0.23	0.24	0.187	0.623	0.478	0.343	0.206
HCC-44	0.906	0.794	0.876	0.628	0.636	0.198	0.351	0.11	0.767	0.73	0.808	0.457	0.603	0.607	0.685	0.639	0.913	0.941	0.952	0.94
HCC-78	0.487	0.419	0.447	0.494	0.356	0.399	0.364	0.322	0.356	0.325	0.326	0.336	0.901	0.856	0.911	0.956	0.727	0.674	0.701	0.564
HCC-366	1.09	1.04	0.688	0.0134	1.05	0.139	0.823	0.0338	0.566	0.616	0.112	0.0109	0.167	0.156	0.116	0.0342	0.39	0.31	0.0994	0.0263
HCC-827	1.03	0.998	0.947	0.999	0.741	0.758	0.722	0.532	0.965	0.94	0.96	0.675	0.275	0.272	0.258	0.246	0.344	0.35	0.283	0.252

Cell Line	relative viability (Elesclomol + Bortezomib; first compound 0.003162 µM)	relative viability (Elesclomol + Bortezomib; first compound 0.01 µM)	relative viability (Elesclomol + Bortezomib; first compound 0.03162 µM)	relative viability (Elesclomol + Bortezomib; first compound 0.1 µM)	relative viability (Elesclomol + OSI-027; first compound 0.003162 µM)	relative viability (Elesclomol + OSI-027; first compound 0.01 µM)	relative viability (Elesclomol + OSI-027; first compound 0.03162 µM)	relative viability (Elesclomol + OSI-027; first compound 0.1 µM)	relative viability (Elesclomol + Crizotinib; first compound 0.003162 µM)	relative viability (Elesclomol + Crizotinib; first compound 0.01 µM)	relative viability (Elesclomol + Crizotinib; first compound 0.03162 µM)	relative viability (Elesclomol + Crizotinib; first compound 0.1 µM)	relative viability (Elesclomol + Pemetrexed; first compound 0.003162 µM)	relative viability (Elesclomol + Pemetrexed; first compound 0.01 µM)	relative viability (Elesclomol + Pemetrexed; first compound 0.03162 µM)	relative viability (Elesclomol + Pemetrexed; first compound 0.1 µM)	relative viability (Elesclomol + Decitabine; first compound 0.003162 µM)	relative viability (Elesclomol + Decitabine; first compound 0.01 µM)	relative viability (Elesclomol + Decitabine; first compound 0.03162 µM)	relative viability (Elesclomol + Decitabine; first compound 0.1 µM)
HOP-62	0.884	0.708	0.83	0.146	0.823	0.717	0.701	0.316	0.952	0.916	0.919	0.256	0.369	0.333	0.224	0.113	0.189	0.231	0.214	0.137
IA-LM	0.534	0.137	0.0664	0.0121	–	–	–	–	0.746	0.343	0.0493	0.0241	–	–	–	–	–	–	–	–
LC-2-ad	0.978	0.337	0.11	0.0678	0.52	0.231	0.273	0.276	0.423	0.251	0.194	0.238	0.294	0.269	0.236	0.201	0.763	0.653	0.391	0.218
LCLC-97TM1	0.493	0.0794	0.0851	0.0274	0.549	0.164	0.49	0.15	0.283	0.253	0.319	0.0642	0.159	0.133	0.164	0.0782	0.258	0.198	0.211	0.131
LCLC-103H	1.12	0.865	1.07	0.838	0.461	0.409	0.463	0.237	0.948	0.937	0.993	1.02	0.476	0.483	0.467	0.431	0.765	0.686	0.734	0.742
LK-2	–	–	–	–	0.232	0.224	0.179	0.116	0.224	0.213	0.124	0.106	–	0.289	0.276	0.128	0.288	0.314	0.276	0.113
NCI-H358	–	–	–	–	0.276	0.116	0.0873	0.087	0.215	0.151	0.204	0.171	0.159	0.123	0.142	0.133	0.171	0.108	0.0885	0.0726
NCI-H727	0.679	0.405	0.185	0.0498	0.641	0.426	0.394	0.251	0.681	0.453	0.096	0.0428	–	–	–	–	0.98	0.836	0.847	0.528
NCI-H1395	–	–	–	–	0.706	0.435	0.398	0.227	–	–	–	–	0.829	0.436	0.201	0.183	0.754	0.532	0.318	0.249
NCI-H1563	0.732	0.62	0.457	0.492	0.647	0.606	0.52	0.459	0.649	0.623	0.502	0.453	0.741	0.698	0.544	0.619	–	–	–	–
NCI-H1703	0.136	0.0882	0.104	0.12	–	–	–	–	0.151	0.137	0.0928	0.0853	–	–	–	–	–	–	–	–
NCI-H1793	–	–	–	–	0.276	0.197	0.262	0.228	–	–	–	–	0.833	0.643	0.855	0.102	0.44	0.387	0.454	0.126
NCI-H1944	–	–	–	–	0.454	0.306	0.389	0.299	1.07	1.06	1	1.01	0.613	0.724	0.572	0.189	0.441	0.498	0.401	0.253
NCI-H2170	–	–	–	–	0.793	0.577	0.739	0.583	1.26	0.956	1.17	0.653	0.28	0.28	0.27	0.26	0.461	0.48	0.48	0.38
NCI-H2228	0.926	0.893	0.422	0.0364	0.568	0.27	0.188	0.0467	0.381	0.312	0.143	0.0592	0.307	0.308	0.143	0.0377	–	–	–	–
NCI-H2342	–	–	–	–	0.648	0.583	0.395	0.301	–	–	–	–	0.732	0.634	0.728	0.705	0.697	0.866	0.784	0.602
SK-MES-1	–	–	–	–	0.695	0.196	0.266	0.395	1.06	0.887	0.964	0.625	0.982	0.597	0.524	0.415	0.425	0.306	0.213	0.172
SW 900	–	–	–	–	0.615	0.287	0.121	0.0545	–	–	–	–	0.495	0.453	0.289	0.0977	0.404	0.358	0.204	0.13
